Measured values: PubChem BioAssay AID2060896 (Molecular Pharmacology Branch, DTP, NCI, 2025)
pIC50: −log10 of the molar value.

Tested on: 941728-121-R-J1-PDC complex spheroid viability
Assay: Anticancer human tumor 941728-121-R-J1-PDC patient-derived lung adenocarcinoma cell line growth inhibition [RAS]
Details: for pIC50: curve of first compound; for viability, T/C: stronger effect = lower value
Description: RAS pathway inhibitors in Combinations in Complex Spheroids
A high-throughput screen of multi-cell type tumor spheroids was designed to identify active combinations of RAS pathway inhibitors and targeted small molecules. Complex spheroids include a stromal component modeled by human endothelial cells (HUVEC) and fibroblasts modeled by human mesenchymal stem cells (MSCs). The concentration ranges selected for each drug and investigational agent were based upon clinically achievable concentrations if the clinical Cmax of the agent was known.
Compounds. The drugs and investigational agents: abemaciclib (NSC768073), cobimetinib (NSC768068), divarasib (GDC6063, NSC841802), docetaxel (NSC628503), GDC-1971 (RLY-1971, NSC841576), gemcitabine (NSC613327), inavolisib (NSC800729), ipatasertib (NSC767898), KB-0742 (NSC834161), MRTX-1133 (NSC836407), osimertinib (NSC779217), RMC-4630 (NSC839698), RMC-6236 (NSC851965), RMC-6291 (NSC852671), Ro-3306 (NSC812927), sapanisertib (NSC764658), SN-38 (NSC673596), staurosporine (NSC755774), SY5609 (NSC837396), and tovorafenib (DAY101, NSC766906), were obtained from the National Cancer Institute (NCI) Developmental Therapeutics Program Chemical Repository. The FDA-approved anticancer drug set is available from the NCI Developmental Therapeutics Program. […] The stock solutions were prepared in dimethyl sulfoxide (DMSO, Sigma-Aldrich, St. Louis, MO, cat. D2650) at 800-fold the tested concentration and stored at -70 degrees C prior to their use. All drugs and investigational agents were tested over a range starting from a high concentration at or near the clinical Cmax and decreasing in half-log increments. If the clinical Cmax for an agent had not been determined, the highest concentration tested was 10 microM.
Cell Culture. All cells were maintained in an incubator at 37 degrees C and 5% CO2 with 95% humidity. The PDC lines were cultured according to standard operating procedures established by the NCI PDMR. All PDCs were thawed and cultured in Matrigel-coated flasks prepared with a working solution of 1X Ham's F-12 nutrient mix, without supplementation (Invitrogen, Waltham, MA, cat. 11765054), 100 U/mL penicillin-streptomycin (Invitrogen, cat. 15140122), and 2.5% Matrigel (Corning Inc., Corning, NY, cat. 354248) for the first three passages. The 362531-283-R-J2-PDC and 782815-120-R-J1-PDC lines were cultured in 6C/Colon 1B media, which includes advanced DMEM/F-12 (Thermo Fisher Scientific, cat. 12634028), 10 mM HEPES (Thermo Fisher Scientific, cat. 15630080), 1X GlutaMAX supplement (Thermo Fisher Scientific, cat. 35050061), 0.1 mg/mL primocin (InvivoGen, San Diego, CA, cat. ant-pm-2), 10% defined fetal bovine serum, heat inactivated (HyClone Laboratories Inc., Logan, UT, cat. SH30070.03HI), 50% L-WRN conditioned media (ATCC, cat. CRL-3276), 1.25 mM N-Acetyl-L-cysteine (Sigma-Aldrich, cat. A9165), 10 mM nicotinamide (Sigma-Aldrich, cat. N0636), 1X B-27 supplement (Thermo Fisher Scientific, cat. 17504044), 1X N-2 supplement (Thermo Fisher Scientific, cat. 17502048), 50 ng/mL human EGF (Thermo Fisher Scientific, cat. PHG0311), and 10 microM Y-27632 dihydrochloride (Tocris Bioscience, cat. 1254). The K12877-001-R-J1-PDC line was cultured in 6I media, which includes all 6C/Colon 1B media plus 10 ng/mL human FGF-10 (PeproTech, cat. 100-26), 1 ng/mL human FGF-2 (PeproTech, cat. 100-18B), 1 µM prostaglandin E2 (Tocris Bioscience, cat. 2296), […] hydrocortisone (Sigma-Aldrich, cat. H4001), and […] bovine insulin (Sigma-Aldrich, cat. I6634). The K86415-001-R-J1-PDC line was cultured in 6D media, which includes all 6C/Colon 1B media components minus the L-WRN conditioned media. The 485176-168-R4-J1-PDC was cultured in PANC media, which includes all 6C/Colon 1B media plus 100 ng/mL human FGF-10 (PeproTech, cat. 100-26), 500 nM SB-431542 (Selleckchem, cat. S1067), and 10 nM gastrin (Tocris Bioscience, cat. 3006). […]

[1] = second compound 0.0316 µM, first compound 0.0316 µM
[2] = second compound 0.0316 µM, first compound 0.1 µM
[3] = second compound 0.0316 µM, first compound 0.316 µM
[4] = second compound 0.0316 µM, first compound 1 µM
[5] = second compound 0.1 µM, first compound 0.0316 µM
[6] = second compound 0.1 µM, first compound 0.1 µM
[7] = second compound 0.1 µM, first compound 0.316 µM
[8] = second compound 0.1 µM, first compound 1 µM
[9] = second compound 0.316 µM, first compound 0.0316 µM
[10] = second compound 0.316 µM, first compound 0.1 µM
[11] = second compound 0.316 µM, first compound 0.316 µM
[12] = second compound 0.316 µM, first compound 1 µM
[13] = second compound 1 µM, first compound 0.0316 µM
[14] = second compound 1 µM, first compound 0.1 µM
[15] = second compound 1 µM, first compound 0.316 µM
[16] = second compound 1 µM, first compound 1 µM
[17] = second compound 3.16 µM, first compound 0.0316 µM
[18] = second compound 3.16 µM, first compound 0.1 µM
[19] = second compound 3.16 µM, first compound 0.316 µM
[20] = second compound 3.16 µM, first compound 1 µM
[21] = second compound 10 µM, first compound 0.0316 µM
[22] = second compound 10 µM, first compound 0.1 µM
[23] = second compound 10 µM, first compound 0.316 µM
[24] = second compound 10 µM, first compound 1 µM
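Also: spheroids exposed to compounds for 7 days before readout.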
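For viability, T/C in this document: 100% = DMSO vehicle control viability.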

For CC(Nc1ccc2c(c1)OCCn1cc(N3C(=O)OCC3C(F)F)nc1-2)C(N)=O (centres undefined) + C#Cc1c(F)ccc2cc(O)cc(-c3ncc4c(N5CC6CCC(C5)N6)nc(OCC56CCCN5CC(F)C6)nc4c3F)c12, the pIC50 (second compound 0.0316 µM) was 7.12, the pIC50 (second compound 0.1 µM) was 7.31 and the pIC50 (second compound 0.316 µM) was over 7.50. The pIC50 (second compound 1 µM) was over 7.50, the pIC50 (second compound 3.16 µM) was over 7.50 and the pIC50 (second compound 10 µM) was over 7.50. For the same molecule, the viability, T/C [1] was 64.5%, the viability, T/C [2] was 44.4% and the viability, T/C [3] was 37%. The viability, T/C [4] was 35.9%, the viability, T/C (second compound 0.0316 µM, first compound 3.16 µM) was 29% and the viability, T/C (second compound 0.0316 µM, first compound 10 µM) was 29.6%. For the same molecule, the viability, T/C [5] was 56.9%, the viability, T/C [6] was 39.5% and the viability, T/C [7] was 33.2%. The viability, T/C [8] was 28.1%, the viability, T/C (second compound 0.1 µM, first compound 3.16 µM) was 31.3% and the viability, T/C (second compound 0.1 µM, first compound 10 µM) was 32.5%. The viability, T/C [9] was 40.3%, the viability, T/C [10] was 38.1% and the viability, T/C [11] was 33.4%. For the same molecule, the viability, T/C [12] was 29.9%, the viability, T/C (second compound 0.316 µM, first compound 3.16 µM) was 30.4% and the viability, T/C (second compound 0.316 µM, first compound 10 µM) was 23.1%. It also gave a viability, T/C [13] of 33.8%, a viability, T/C [14] of 29.8% and a viability, T/C [15] of 27.6%. For the same molecule, the viability, T/C [16] was 27.8%, the viability, T/C (second compound 1 µM, first compound 3.16 µM) was 27.4% and the viability, T/C (second compound 1 µM, first compound 10 µM) was 25.9%. For the same molecule, the viability, T/C [17] was 28.3%, the viability, T/C [18] was 28.4% and the viability, T/C [19] was 28%. The viability, T/C [20] was 23.4%, the viability, T/C (second compound 3.16 µM, first compound 3.16 µM) was 26.2% and the viability, T/C (second compound 3.16 µM, first compound 10 µM) was 23.2%. It also gave a viability, T/C [21] of 22.8%, a viability, T/C [22] of 21.2% and a viability, T/C [23] of 19.5%. For the same molecule, the viability, T/C [24] was 18.5%, the viability, T/C (second compound 10 µM, first compound 3.16 µM) was 17.4% and the viability, T/C (second compound 10 µM, first compound 10 µM) was 15.4%.
O=C(c1ccc(F)c(F)c1Nc1ccc(I)cc1F)N1CC(O)([C@@H]2CCCCN2)C1 + C#Cc1c(F)ccc2cc(O)cc(-c3ncc4c(N5CC6CCC(C5)N6)nc(OCC56CCCN5CC(F)C6)nc4c3F)c12 gave a pIC50 (second compound 0.0316 µM) of 7.84, a pIC50 (second compound 0.1 µM) of 8.01 and a pIC50 (second compound 0.316 µM) of over 8.50. The pIC50 (second compound 1 µM) was over 8.50, the pIC50 (second compound 3.16 µM) was over 8.50 and the pIC50 (second compound 10 µM) was over 8.50. For the same molecule, the viability, T/C (second compound 0.0316 µM, first compound 0.00316 µM) was 71%, the viability, T/C (second compound 0.0316 µM, first compound 0.01 µM) was 55.9% and the viability, T/C [1] was 37.7%. It also gave a viability, T/C [2] of 31.2%, a viability, T/C [3] of 29.6% and a viability, T/C [4] of 24.4%. It also gave a viability, T/C (second compound 0.1 µM, first compound 0.00316 µM) of 70.6%, a viability, T/C (second compound 0.1 µM, first compound 0.01 µM) of 49.2% and a viability, T/C [5] of 37%. It also gave a viability, T/C [6] of 31%, a viability, T/C [7] of 28.3% and a viability, T/C [8] of 23.9%. It also gave a viability, T/C (second compound 0.316 µM, first compound 0.00316 µM) of 47.9%, a viability, T/C (second compound 0.316 µM, first compound 0.01 µM) of 44.9% and a viability, T/C [9] of 31.9%. For the same molecule, the viability, T/C [10] was 29%, the viability, T/C [11] was 30.5% and the viability, T/C [12] was 21.6%. It also gave a viability, T/C (second compound 1 µM, first compound 0.00316 µM) of 33.8%, a viability, T/C (second compound 1 µM, first compound 0.01 µM) of 29.7% and a viability, T/C [13] of 31.9%. The viability, T/C [14] was 29.1%, the viability, T/C [15] was 29.2% and the viability, T/C [16] was 20.8%. It also gave a viability, T/C (second compound 3.16 µM, first compound 0.00316 µM) of 24.5%, a viability, T/C (second compound 3.16 µM, first compound 0.01 µM) of 28.5% and a viability, T/C [17] of 27.4%. The viability, T/C [18] was 25.7%, the viability, T/C [19] was 21.9% and the viability, T/C [20] was 19.1%. For the same molecule, the viability, T/C (second compound 10 µM, first compound 0.00316 µM) was 22%, the viability, T/C (second compound 10 µM, first compound 0.01 µM) was 18.8% and the viability, T/C [21] was 17.7%. It also gave a viability, T/C [22] of 18.1%, a viability, T/C [23] of 15.5% and a viability, T/C [24] of 12.2%.
